Columns and labels:
Assay in all cases: relative viability (nuclei count vs DMSO), 5 days (fraction); higher = more cells survive
COR-L 105 = tested on: COR-L 105
Outline: (§1)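 The day after seeding in 1536-well plates, lung cancer cell lines were treated by pin tool with a single drug, or with a fixed anchor-drug dose together with five library-drug doses (not always all listed) in √10 steps. After 5 days, a combined fix-and-stain solution (final 0.05% Triton X-100, 1% formaldehyde, 1 ug/ml Hoechst) was added. Nuclei counted on 4× images gave relative viability as treated counts over vehicle counts, reported as the median of duplicate plates.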

LU99A = tested on: LU99A
Outline: as §1

LOU-NH91 = tested on: LOU-NH91
Outline: as §1

NCI-H358 = tested on: NCI-H358
Outline: as §1

RERF-LC-KJ = tested on: RERF-LC-KJ
Outline: as §1

BEN = tested on: BEN
Outline: as §1

LK-2 = tested on: LK-2
Outline: as §1

NCI-H2087 = tested on: NCI-H2087
Outline: as §1

SK-MES-1 = tested on: SK-MES-1
Outline: as §1

EMC-BAC-2 = tested on: EMC-BAC-2
Outline: as §1

EKVX = tested on: EKVX
Outline: as §1

SW 1573 = tested on: SW 1573
Outline: as §1

EPLC-272H = tested on: EPLC-272H
Outline: as §1

ChaGo-K-1 = tested on: ChaGo-K-1
Outline: as §1

NCI-H1792 = tested on: NCI-H1792
Outline: as §1

HCC-78 = tested on: HCC-78
Outline: as §1

NCI-H2126 = tested on: NCI-H2126
Outline: as §1

NCI-H1734 = tested on: NCI-H1734
Outline: as §1

NCI-H1944 = tested on: NCI-H1944
Outline: as §1

LCLC-97TM1 = tested on: LCLC-97TM1
Outline: as §1

HCC-827 = tested on: HCC-827
Outline: as §1

NCI-H727 = tested on: NCI-H727
Outline: as §1

NCI-H1650 = tested on: NCI-H1650
Outline: as §1

O=c1[nH]c2ccccc2n1C1CCN(CCCC(c2ccc(F)cc2)c2ccc(F)cc2)CC1 [Pimozide] + N=C(N)NC(=N)NCCc1ccccc1 [Phenformin] (partner 250 µM)
relative viability (COR-L 105; first compound 0.253 µM): 0.519 | relative viability (COR-L 105; first compound 0.8 µM): 0.512 | relative viability (COR-L 105; first compound 2.53 µM): 0.471 | relative viability (COR-L 105; first compound 8 µM): 0.473 | relative viability (LU99A; first compound 0.08 µM): 0.803 | relative viability (LU99A; first compound 0.253 µM): 0.837 | relative viability (LU99A; first compound 0.8 µM): 0.573 | relative viability (LU99A; first compound 2.53 µM): 0.765 | relative viability (LU99A; first compound 8 µM): 0.897 | relative viability (LOU-NH91; first compound 0.08 µM): 0.43 | relative viability (LOU-NH91; first compound 0.253 µM): 0.702 | relative viability (LOU-NH91; first compound 0.8 µM): 0.677 | relative viability (LOU-NH91; first compound 2.53 µM): 0.79 | relative viability (LOU-NH91; first compound 8 µM): 0.581 | relative viability (NCI-H358; first compound 0.08 µM): 0.295 | relative viability (NCI-H358; first compound 0.253 µM): 0.37 | relative viability (NCI-H358; first compound 0.8 µM): 0.366 | relative viability (NCI-H358; first compound 2.53 µM): 0.313 | relative viability (NCI-H358; first compound 8 µM): 0.327 | relative viability (RERF-LC-KJ; first compound 0.08 µM): 0.416 | relative viability (RERF-LC-KJ; first compound 0.253 µM): 0.467 | relative viability (RERF-LC-KJ; first compound 0.8 µM): 0.409 | relative viability (RERF-LC-KJ; first compound 2.53 µM): 0.264 | relative viability (RERF-LC-KJ; first compound 8 µM): 0.401 | relative viability (BEN; first compound 0.08 µM): 0.278 | relative viability (BEN; first compound 0.253 µM): 0.274 | relative viability (BEN; first compound 0.8 µM): 0.258 | relative viability (BEN; first compound 2.53 µM): 0.289 | relative viability (BEN; first compound 8 µM): 0.3 | relative viability (LK-2; first compound 0.08 µM): 0.501 | relative viability (LK-2; first compound 0.253 µM): 0.367 | relative viability (LK-2; first compound 2.53 µM): 0.237 | relative viability (LK-2; first compound 8 µM): 0.345 | relative viability (NCI-H2087; first compound 0.08 µM): 0.5 | relative viability (NCI-H2087; first compound 0.253 µM): 0.47 | relative viability (NCI-H2087; first compound 2.53 µM): 0.464 | relative viability (NCI-H2087; first compound 8 µM): 0.393 | relative viability (SK-MES-1; first compound 0.08 µM): 0.628 | relative viability (SK-MES-1; first compound 0.253 µM): 0.619 | relative viability (SK-MES-1; first compound 0.8 µM): 0.664 | relative viability (SK-MES-1; first compound 2.53 µM): 0.587 | relative viability (SK-MES-1; first compound 8 µM): 0.603 | relative viability (EMC-BAC-2; first compound 0.08 µM): 0.561 | relative viability (EMC-BAC-2; first compound 0.253 µM): 0.515 | relative viability (EMC-BAC-2; first compound 0.8 µM): 0.483 | relative viability (EMC-BAC-2; first compound 2.53 µM): 0.486 | relative viability (EMC-BAC-2; first compound 8 µM): 0.519 | relative viability (EKVX; first compound 0.08 µM): 0.192 | relative viability (EKVX; first compound 0.253 µM): 0.235 | relative viability (EKVX; first compound 0.8 µM): 0.201 | relative viability (EKVX; first compound 2.53 µM): 0.235 | relative viability (EKVX; first compound 8 µM): 0.226 | relative viability (SW 1573; first compound 0.08 µM): 0.348 | relative viability (SW 1573; first compound 0.253 µM): 0.309 | relative viability (SW 1573; first compound 0.8 µM): 0.341 | relative viability (SW 1573; first compound 2.53 µM): 0.377 | relative viability (SW 1573; first compound 8 µM): 0.388 | relative viability (EPLC-272H; first compound 0.08 µM): 0.29 | relative viability (EPLC-272H; first compound 0.253 µM): 0.306 | relative viability (EPLC-272H; first compound 0.8 µM): 0.342 | relative viability (EPLC-272H; first compound 2.53 µM): 0.0767 | relative viability (EPLC-272H; first compound 8 µM): 0.253 | relative viability (ChaGo-K-1; first compound 0.08 µM): 0.565 | relative viability (ChaGo-K-1; first compound 0.253 µM): 0.529 | relative viability (ChaGo-K-1; first compound 0.8 µM): 0.461 | relative viability (ChaGo-K-1; first compound 2.53 µM): 0.458 | relative viability (ChaGo-K-1; first compound 8 µM): 0.399 | relative viability (NCI-H1792; first compound 0.08 µM): 0.356 | relative viability (NCI-H1792; first compound 0.253 µM): 0.314 | relative viability (NCI-H1792; first compound 2.53 µM): 0.233 | relative viability (NCI-H1792; first compound 8 µM): 0.278 | relative viability (HCC-78; first compound 0.08 µM): 0.781 | relative viability (HCC-78; first compound 0.8 µM): 0.628 | relative viability (HCC-78; first compound 2.53 µM): 0.635 | relative viability (HCC-78; first compound 8 µM): 0.678 | relative viability (NCI-H2126; first compound 0.08 µM): 0.513 | relative viability (NCI-H2126; first compound 0.253 µM): 0.519 | relative viability (NCI-H2126; first compound 0.8 µM): 0.464 | relative viability (NCI-H2126; first compound 2.53 µM): 0.525 | relative viability (NCI-H2126; first compound 8 µM): 0.584 | relative viability (NCI-H1734; first compound 0.08 µM): 0.408 | relative viability (NCI-H1734; first compound 0.253 µM): 0.366 | relative viability (NCI-H1734; first compound 2.53 µM): 0.373 | relative viability (NCI-H1734; first compound 8 µM): 0.426 | relative viability (NCI-H1944; first compound 0.08 µM): 0.191 | relative viability (NCI-H1944; first compound 0.253 µM): 0.197 | relative viability (NCI-H1944; first compound 0.8 µM): 0.187 | relative viability (NCI-H1944; first compound 2.53 µM): 0.184 | relative viability (NCI-H1944; first compound 8 µM): 0.198 | relative viability (LCLC-97TM1; first compound 0.08 µM): 0.487 | relative viability (LCLC-97TM1; first compound 0.253 µM): 0.403 | relative viability (LCLC-97TM1; first compound 0.8 µM): 0.356 | relative viability (LCLC-97TM1; first compound 2.53 µM): 0.418 | relative viability (LCLC-97TM1; first compound 8 µM): 0.413 | relative viability (HCC-827; first compound 0.253 µM): 0.403 | relative viability (HCC-827; first compound 0.8 µM): 0.464 | relative viability (HCC-827; first compound 2.53 µM): 0.443 | relative viability (HCC-827; first compound 8 µM): 0.42 | relative viability (NCI-H727; first compound 0.08 µM): 0.467 | relative viability (NCI-H727; first compound 0.253 µM): 0.641 | relative viability (NCI-H727; first compound 0.8 µM): 0.448 | relative viability (NCI-H727; first compound 2.53 µM): 0.684 | relative viability (NCI-H727; first compound 8 µM): 0.577 | relative viability (NCI-H1650; first compound 0.08 µM): 0.378 | relative viability (NCI-H1650; first compound 0.253 µM): 0.45 | relative viability (NCI-H1650; first compound 0.8 µM): 0.495 | relative viability (NCI-H1650; first compound 2.53 µM): 0.418 | relative viability (NCI-H1650; first compound 8 µM): 0.306

Source: the supplement of paper PMC10307832
